The text below walks through data of patent publication US5972943A, “Pyridinecarboxamide derivatives” (Nisshin Flour Milling Co., Ltd., priority 1996, dated 1999).

The nature of data set [1]: Behavior suppressing action (general behaviors of mice). Format: in vivo, ddY-strain mice. As to conditions: 10 mg/kg, tail vein; for Behavioral suppression: observed over one hour. The protocol:
The effect of the present pyridinecarboxamide derivatives on general behaviors of mice was studied.
Using ddY-strain mice of 7 weeks old, test substance was administered at 100μ11/10 sec to the tail vein and behavior of the animal was observed over one hour. After the administration, sedative animal was evaluated as sedated, while animal with behavioral suppression was evaluated as suppressed.

Data set [2] deals with lipid peroxidation in rat brain homogenate. As to the kind of experiment: Inhibitory action on lipid peroxidation in rat brain homogenate. Format: biochemical, Wistar-strain male rats. To be noted: 10^-4 M, 37° C., 15 minutes. The protocol: Inhibitory action on lipid peroxidation was studied in rat brain homogenate.
Wistar-strain male rats (weighing 230-300 g) were decapitated and the cerebrum was quickly excised. A 4 times volume of a solution of 50 mM phosphoric acid and […] NaCl (pH 7.4) was added and the mixture was homogenated and then centrifuged at 3000 rpm for 10 minutes. The supernatant thus obtained was prepared to give a protein level of 2 mg/ml.
Determination of lipid peroxide was carried out using TBA method (thiobarbituric acid). To the brain homogenate was added each of Compound 1, Compound 5, Compound 6, Compound 8, Compound 9, Compound 11 and Compound 14 as a test substance to give a final concentration of 10^-4 M, thereby initiating the reaction. After incubation at 37° C. for 15 minutes, the reaction was stopped in ice by adding a 35% perchloric acid solution. The reaction mixture was centrifuged at 4° C. and 1000 rpm for 5 minutes and to the supernatant thus obtained was added a 0.5% TBA solution. The mixture was boiled at 100° C. for 15 minutes. After cooling, absorbance was determined at 532 nm. 1,1,3,3-Tetraethoxypropane as a standard was subjected to the reaction in the same manner as above and an amount of lipid peroxide, that is, an amount of the malondialdehyde (MDA) produced was determined from the absorbance.
Inhibitory rate of lipid peroxidation was calculated according to the following equation: [formula]

The test system of data set [3] is cerebral edema, ischemic reperfusion model using SHR-SP. Nature of the data set: Anti-cerebral edema action (ischemic reperfusion model using SHR-SP). Format: in vivo, male SHR-SP (spontaneous hypertensive rats). To be noted: 1 mg/kg i.v. twice; for Inhibitory rate of cerebral ischemia (cerebral edema): immediately after ischemia and immediately before reperfusion. On the procedure: The pyridinecarboxamide derivatives of this invention were studied for the inhibitory action on cerebral edema with the model using SHR-SP (Spontaneous hypertensive rats which are vulnerable to cerebral hemorrhage).
Male SHR-SP of 15-17 weeks old were measured for the blood pressure one day before the testing and classified into groups. Both common carotid arteries were separated under pentobarbital anesthesia at 35 mg/kg and common carotid arteries were fastened by clamp to cause ischemia. After 2 hours, the clamp was removed from the common carotid artery to reperfuse. After a further 2 hours, the animal was decapitated and the cerebrum excised under ether anesthesia. The cerebrum was dried in an oven at 105° C. for 24 hours and the cerebral water content (%) was calculated. [formula]
Compound 1 and Comparative Compound 2 were intravenously administered twice, that is, immediately after the ischemia and immediately before the reperfusion at the dose of 1 mg/kg, respectively.

The test system of another data set is hypoxic model of mice. Nature of the data set: Cerebral protective action (anti-anoxia action), hypoxic model of mice, gasping duration after decapitation. Format: in vivo, ddY-strain male mice. To be noted: 1.0 mg/kg i.v., 30 minutes before decapitation. The protocol:
Cerebral protective action of the pyridinecarboxamide derivatives of this invention (an anti-anoxia action) were studied using a hypoxic model of mice.
Using ddY-strain male mice of 6 weeks old, the test substance of Compound 1, Compound 10 or Compound 11 was intravenously administered to the tail vein at the dose of 1.0 mg/kg. After 30 minutes from the administration, animals were decapitated to measure a gasping duration. This measurement was made by two persons who had not been informed of the test substances and the measured values were averaged to obtain the data. Also, the test was carried out in the same manner as described above except that Comparative Compound 1 was administered instead of the test substances.
The action of each substance will be shown in Table 2, with the gasping time of Comparative Compound 1 being defined as 1.
It is believed that grasping after decapitation is controlled by the respiratory center and, if the nervous functions are maintained by the respiratory center, the gasping duration would be prolonged. […] In view of the foregoing, the pyridinecarboxamide derivatives of this invention can prolong the gasping duration and then are useful as a cerebral protective agent.

A short description of data set [4]: Behavior suppressing activity (background statement). Format: in vivo. As to conditions: background / disclosure statement.
In data set [5] the test system is hypoxia and anoxia models. To be noted: Sakurai et al., Jpn. J. Pharmacol. 1993; cited from earlier work.
The subject of data set [6] is cerebral edema model using polyvinyl acetate. Nature of the data set: Anti-cerebral edema action (obstructive cerebral ischemia model using polyvinyl acetate). Format: in vivo, Wistar-strain male rats. As to conditions: 1 mg/kg i.v., 5 minutes before polyvinyl acetate; rats. On the procedure: Inhibiting action on cerebral ischemia was studied in an obstructive cerebral ischemia model using polyvinyl acetate.
The obstructive model was prepared as described below. (Hiroyoshi Nishi et al., Stroke 1989, 20:1236-1240)
Wistar-strain male rats weighing 200-350 g were used and fixed at the dorsal position under anesthesia of ether and then the left common carotid artery, internal carotid artery, external carotid artery were isolated. The external carotid artery was ligated, the pterylgopalatine artery was fastened with clamp and a cannula was inserted from the external carotid artery toward the branch between the internal carotid artery and the common carotid artery. 5 μl of a 3% polyvinyl acetate/52% ethanol solution in water was injected. After 30 seconds, the clamp was removed from the artery and then the wound was sutured. After 24 hours, animal was decapitated and the cerebrum was isolated, within 120 seconds from which wet weights of the left cerebrum and the right cerebrum were measured. The left and right cerebra were dried in an oven at 105° C. for 24 hours and then the dry weights were measured. A cerebral water content was calculated according to the following equation: [formula]
Compound 1 or Compound 9 was intravenously injected to the tail vein at the doses of 1.0 mg/kg and 3.0 mg/kg before 5 minutes from the administration of polyvinyl acetate.

For another data set, the system named is hippocampus CA1 cells. Nature of the data set: Inhibitory rate of delayed neuronal death. Format: in vivo, MON/Jms/Gbs-strain male jirds. As to conditions: 0.5 mg/kg, carotid artery, immediately after ischemia; jirds; 7 days. On the procedure:
MON/Jms/Gbs-strain male jirds (weighing 60-80 g) were fixed at the dorsal position under 1.5-2.0% halothane anesthesia and the common carotid artery was isolated. Ischemia was caused by fastening the common carotid artery with clamp for 3 minutes and then reperfused. After 7 days, the brain was excised under ether anesthesia and fixed with 10% formalin for 2 days and then tissue slices of the hippocampus were prepared. The hippocampus CA1 cells were stained using HE staining and the survival rate of the CA1 cells was evaluated.
Compound 1 was administered to the carotid artery at the dose of 0.5 mg/kg immediately after ischemia. Using as a control the case wherein the drug was not administered, inhibitory rate was calculated according to the following equation: [formula]

The conditions of data set [7]: known drug, background statement; cited from earlier work.

On to `CCCN1CCN(c2ccc(C(=O)NCCCCCCCCCCCCCCO[N+](=O)[O-])cn2)CC1` [Compound 7, N-(14-Nitroxytetradecyl)-6-(4-propyl-1-piperazinyl)pyridine-3-carboxamide], for which, in data set [1], the “General behaviors (result in words)” value was “No abnormalities were observed in general behaviors” and the Behavioral suppression result is on record as “Non”.
Consider `O=C(NCCCCCCCCCCCCCCCCCCO[N+](=O)[O-])c1ccc(N2CCNCC2)nc1` [Compound 14, N-(18-Nitroxyoctadecyl)-6-(1-piperazinyl)pyridine-3-carboxamide], for which, in data set [2], the “Inhibitory rate of lipid peroxidation” value came to 75%.
Regarding `O=C(NCCCCCCCCCCCCCCO[N+](=O)[O-])c1ccc(N2CCNCC2)nc1` [Compound 6, N-(14-Nitroxytetradecyl)-6-(1-piperazinyl)pyridine-3-carboxamide], in data set [1], the “General behaviors (result in words)” value is reported as “No abnormalities were observed in general behaviors” and the Behavioral suppression result is on record as “Non”. In addition, the “Inhibitory rate of lipid peroxidation” value in data set [2] was 59%.
`CN1CCN(c2ccc(C(=O)NCCCCCCCCCCCCCCCCCCO[N+](=O)[O-])cn2)CC1` [Compound 13, N-(18-Nitroxyoctadecyl)-6-(4-methyl-1-piperazinyl)pyridine-3-carboxamide]: in [1], the “General behaviors (result in words)” value is on record as “No abnormalities were observed in general behaviors” and the Behavioral suppression entry is recorded as “Non”.
With `CN1CCN(c2ccc(C(=O)NCCCCCCCCCCCCO[N+](=O)[O-])cn2)CC1` [Comparative Compound 2, N-(12-nitroxy-1-dodecanyl)-6-(4-methyl-1-piperazinyl)nicotinamide, reference compound], in data set [3], the “Anti-cerebral edema activity (result in words)” value is “made cerebral edema worse” and the “Inhibitory rate of cerebral ischemia (cerebral edema)” value is reported as -90%.
Take `CCN1CCN(c2ccc(C(=O)NCCCCCCCCCCCCCCCCO[N+](=O)[O-])cn2)CC1` [Compound 10, N-(16-Nitroxyhexadecyl)-6-(4-ethyl-1-piperazinyl)pyridine-3-carboxamide]: in data set [1], the “General behaviors (result in words)” value is “No abnormalities were observed in general behaviors” and the Behavioral suppression result is “Non”. Also, in the data set on hypoxic model of mice, the “Gasping duration (relative to Comparative Compound 1 defined as 1)” value amounted to 1.7.
For `CN1CCN(c2ccc(C(=O)NCCCCCCCCCCCO[N+](=O)[O-])cn2)CC1` [Comparative Compound 1, N-(11-nitroxy-1-undecanyl)-6-(4-methyl-1-piperazinyl)nicotinamide, reference compound], in data set [1], the “General behaviors (result in words)” value was “suppression of behavior being shown” and the Behavioral suppression entry is on record as “Sedated”. Further, the “Gasping duration (relative to Comparative Compound 1 defined as 1)” value in the data set on hypoxic model of mice was found to be 1. In addition, the Behavior suppressing activity entry in data set [4] was “observed to possess a behavior suppressing activity”. Besides, the “Cerebral protective effect on the hypoxia and anoxia models” value in data set [5] is “could show a cerebral protective effect on the hypoxia and anoxia models”.
Consider `CCN1CCN(c2ccc(C(=O)NCCCCCCCCCCCCCCO[N+](=O)[O-])cn2)CC1` [Compound 5, N-(14-Nitroxytetradecyl)-6-(4-ethyl-1-piperazinyl)pyridine-3-carboxamide], for which, in data set [1], the “General behaviors (result in words)” value is “No abnormalities were observed in general behaviors” and the Behavioral suppression result is recorded as “Non”. In addition, in data set [2], the “Inhibitory rate of lipid peroxidation” value was found to be 69%.
Take `CC(C)N1CCN(c2ccc(C(=O)NCCCCCCCCCCCCCCO[N+](=O)[O-])cn2)CC1` [Compound 8, N-(14-Nitroxytetradecyl)-6-(4-isopropyl-1-piperazinyl)pyridine-3-carboxamide]: in [1], the “General behaviors (result in words)” value is reported as “No abnormalities were observed in general behaviors” and the Behavioral suppression result is listed as “Non”. Besides, in [2], the “Inhibitory rate of lipid peroxidation” value stood at 70%.
On to `CN1CCN(c2ccc(C(=O)NCCCCCCCCCCCCCCO[N+](=O)[O-])cn2)CC1` [Compound 1, N-(14-Nitroxytetradecyl)-6-(4-methyl-1-piperazinyl)pyridine-3-carboxamide], for which, in data set [1], the “General behaviors (result in words)” value was “No abnormalities were observed in general behaviors” and the Behavioral suppression entry is given as “Non”. Also, in the data set with hypoxic model of mice, the “Gasping duration (relative to Comparative Compound 1 defined as 1)” value amounted to 2.6. Further, the “Inhibitory rate of cerebral edema” value in data set [6] is recorded as 44.0%. Besides, in data set [3], the “Anti-cerebral edema activity (result in words)” value is “potent anti-cerebral edema activity” and the “Inhibitory rate of cerebral ischemia (cerebral edema)” value amounted to 63%. Besides, the “Inhibitory rate (delayed neuronal death)” value in the data set on hippocampus CA1 cells was determined as 47%. Also, in data set [2], the “Inhibitory rate of lipid peroxidation” value came out at 91%.
On to `CC(C)N1CCN(c2ccc(C(=O)NCCCCCCCCCCCCCCCCO[N+](=O)[O-])cn2)CC1` [Compound 11, N-(16-Nitroxyhexadecyl)-6-(4-isopropyl-1-piperazinyl)pyridine-3-carboxamide], for which, in data set [1], the “General behaviors (result in words)” value is on record as “No abnormalities were observed in general behaviors” and the Behavioral suppression entry is “Non”. Moreover, the “Gasping duration (relative to Comparative Compound 1 defined as 1)” value in the data set on hypoxic model of mice is 1.4. In [2], the “Inhibitory rate of lipid peroxidation” value amounted to 53%.
Take `CN1CCN(c2ccc(C(=O)NCCCCCCCCCCCCCCCCO[N+](=O)[O-])cn2)CC1` [Compound 9, N-(16-Nitroxyhexadecyl)-6-(4-methyl-1-piperazinyl)pyridine-3-carboxamide]: in data set [1], the “General behaviors (result in words)” value is given as “No abnormalities were observed in general behaviors” and the Behavioral suppression entry is reported as “Non”. In addition, the “Inhibitory rate of cerebral edema” value in [6] worked out at 33.3%. Besides, the “Inhibitory rate of lipid peroxidation” value in [2] was 72%.
Take `CCN(CC)Cc1nccn1-c1ccc([N+](=O)[O-])cc1C(=O)c1ccccc1Cl` [Nizofenone]: the “Behavior suppressing activity as a side-effect” value in [7] is “behavior suppressing activity”.
